In paper doi:10.1101/2025.03.24.645127v1 (biorxiv, 2025) one finds EC50 data, which are given here for 1 compound.

For orientation: EC50 means the concentration giving half of the maximal effect.

This assay deals with T1, GPR119 (Homo sapiens, UniProt Q8TDV5).
T1 sequence (Q8TDV5 1-335): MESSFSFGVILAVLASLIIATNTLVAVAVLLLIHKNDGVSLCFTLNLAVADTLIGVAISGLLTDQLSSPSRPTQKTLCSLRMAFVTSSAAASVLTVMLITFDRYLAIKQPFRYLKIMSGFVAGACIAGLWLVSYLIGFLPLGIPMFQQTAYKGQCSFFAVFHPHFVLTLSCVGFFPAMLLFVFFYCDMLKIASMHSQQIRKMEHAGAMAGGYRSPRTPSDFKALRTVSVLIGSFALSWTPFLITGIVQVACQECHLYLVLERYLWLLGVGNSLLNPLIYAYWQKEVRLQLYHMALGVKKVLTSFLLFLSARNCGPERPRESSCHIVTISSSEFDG
Briefly: cAMP GloSensor assay in CHO-K1. The assay is classed as cell-based.

In the case of `COC(=O)N[C@H](C(=O)N[C@@H](Cc1ccccc1)[C@@H](O)CN(Cc1ccc(-c2ccccn2)cc1)NC(=O)[C@@H](NC(=O)OC)C(C)(C)C)C(C)(C)C` [atazanavir], the EC50 is approximately 3 µM.
